Legend:
[1] = tested on: MAPK-AP-1 cellular signaling pathway; assay: MAPK-AP-1 pathway activity prediction (Bayesian network model, 24 target genes list) on GSE28878, HepG2 cell line; format: cell-based, human; conditions: HepG2, 500 nM TPA, 12 h, 24 h, 48 h, vs DMSO control vehicle
Method: A HepG2 cell line was treated with DMSO as control vehicle (group 1: 12 h, all 3 samples are part of the calibration data set; group 3: 24 h, 2 samples are part of the calibration data set; group 5: 48 h, 1 sample is part of the calibration data set) or 500 nM TPA (group 2: 12 h, 1 sample is part of the calibration data set; group 4: 24 h, all 3 samples are part of the calibration data set; group 6: 48 h). In the diagram, the vertical axis indicates the odds (on a log 2 scale) that the TF element is “present” resp. “absent”, which corresponds to the MAPK-AP-1 cellular signaling pathway being active resp. passive, wherein values above the horizontal axis correspond to the TF element being more likely “present”/active and values below the horizontal axis indicate that the odds that the TF element is “absent”/passive are larger than the odds that it is “present”/active.

[2] = tested on: MAPK-AP-1 cellular signaling pathway; assay: MAPK-AP-1 pathway activity prediction (24 target genes list) on GSE45417, U937 (histiocytic lymphoma) cell line; format: cell-based; conditions: U937, 100 nM TPA vs 0.1% DMSO
Method: The U937 (histiocytic lymphoma) cell line was treated with 0.1% DMSO as control vehicle (group 1: all 3 samples are part of the calibration data set; and group 3), or 100 nM TPA (group 2: all 3 samples are part of the calibration data set; and group 4). Additionally, ZXDC1 knockdown was induced using doxycycline (groups 3 and 4). In the diagram, the vertical axis indicates the odds (on a log 2 scale) that the TF element is “present” resp. “absent”, which corresponds to the MAPK-AP-1 cellular signaling pathway being active resp. passive, wherein values above the horizontal axis correspond to the TF element being more likely “present”/active and values below the horizontal axis indicate that the odds that the TF element is “absent”/passive are larger than the odds that it is “present”/active.

[3] = tested on: MAPK-AP-1 cellular signaling pathway; assay: MAPK-AP-1 pathway activity prediction (24 target genes list) on GSE66853, U937 cells; format: cell-based, human; conditions: 50 ng/ml TPA for 24 h, compared to Ethanol
Method: U937 cells were treated with Ethanol as control vehicle (group 1: all 3 samples are part of the calibration data set; and group 3) or 50 ng/ml TPA (group 2: 1 sample is part of the calibration data set; and group 4) for 24 h. U937 cells were either transduced with an empty vector (groups 1 and 2) or with an EVI1 expression vector (groups 3 and 4). In the diagram, the vertical axis indicates the odds (on a log 2 scale) that the TF element is “present” resp. “absent”, which corresponds to the MAPK-AP-1 cellular signaling pathway being active resp. passive, wherein values above the horizontal axis correspond to the TF element being more likely “present”/active and values below the horizontal axis indicate that the odds that the TF element is “absent”/passive are larger than the odds that it is “present”/active. […] Although it is known that the FOS and JUN promoter region contains EVI1 binding sites it seems that this effect on AP-1 activity is very small compared to the addition of 50 ng/ml TPA.

[4] = tested on: MAPK-AP-1 cellular signaling pathway; assay: MAPK-AP-1 pathway activity prediction (24 target genes list) on E-MEXP-2213, K562 (erythroleukemia) cells; format: cell-based; conditions: K562, 10 nM TPA vs not treated
Method: K562 (erythroleukemia) cells were either not treated (group 1) or treated with 10 nM TPA (group 2). In the diagram, the vertical axis indicates the odds (on a log 2 scale) that the TF element is “present” resp. “absent”, which corresponds to the MAPK-AP-1 cellular signaling pathway being active resp. passive, wherein values above the horizontal axis correspond to the TF element being more likely “present”/active and values below the horizontal axis indicate that the odds that the TF element is “absent”/passive are larger than the odds that it is “present”/active.

[5] = tested on: MAPK-AP-1 cellular signaling pathway; assay: MAPK-AP-1 pathway activity prediction (11 target gene shortlist) on GSE40117, hES-Hep cells; format: cell-based, Human; conditions: 0.11 μM TPA vs control conditions
Method: (§1) Human embryonic stem cell derived hepatocyte like cells (hES-Hep) were treated with 0.11 μM TPA (group 2: all 3 samples are part of the calibration data set) and compared to control conditions (group 1). HepG2 (a human liver cancer cell line) were treated with 0.0001 μM TPA (group 4: 3 samples are part of the calibration data set) and compared to control conditions (group 3: 1 sample is part of the calibration data set). In the diagram, the vertical axis indicates the odds (on a log 2 scale) that the TF element is “present” resp. “absent”, which corresponds to the MAPK-AP-1 cellular signaling pathway being active resp. passive, wherein values above the horizontal axis correspond to the TF element being more likely “present”/active and values below the horizontal axis indicate that the odds that the TF element is “absent”/passive are larger than the odds that it is “present”/active.

[6] = tested on: MAPK-AP-1 cellular signaling pathway; assay: MAPK-AP-1 pathway activity prediction (11 target gene shortlist) on GSE40117, HepG2; format: cell-based, human; conditions: HepG2, 0.0001 μM TPA vs control conditions
Method: as §1

[7] = tested on: MAPK-AP-1 cellular signaling pathway; assay: MAPK-AP-1 pathway activity prediction (11 target gene shortlist) on GSE58235, HepG2 (Human Hepatoma) cell line; format: cell-based; conditions: compared to DMSO and Ethanol
Method: The HepG2 (Human Hepatoma) cell line was treated with 0.5% DMSO (group 1: all 3 samples are part of the calibration data set; group 4: 1 sample is part of the calibration data set), 0.5% Ethanol (groups 2 and 5) or 500 nM TPA (group 3: all 3 samples are part of the calibration data set; and group 6) for 24 hours (groups 1 to 3) or 48 hours (groups 4 to 6). In the diagram, the vertical axis indicates the odds (on a log 2 scale) that the TF element is “present” resp. “absent”, which corresponds to the MAPK-AP-1 cellular signaling pathway being active resp. passive, wherein values above the horizontal axis correspond to the TF element being more likely “present”/active and values below the horizontal axis indicate that the odds that the TF element is “absent”/passive are larger than the odds that it is “present”/active.

[8] = tested on: MAPK-AP-1 cellular signaling pathway; assay: MAPK-AP-1 pathway activity prediction (11 target gene shortlist) on E-MEXP-2573, K562 (erythroleukemia) cells; format: cell-based; conditions: 100 nM TPA for a further 48 h
Method: RNA was extracted from K562 (erythroleukemia) cells after 24 h (groups 1 and 3) or cells were treated with 100 nM TPA for a further 48 h (groups 2 and 4). K562 were either transfected with a control empty vector (groups 1 and 2) or a BASP1-containing vector (groups 3 and 4). In the diagram, the vertical axis indicates the odds (on a log 2 scale) that the TF element is “present” resp. “absent”, which corresponds to the MAPK-AP-1 cellular signaling pathway being active resp. passive, wherein values above the horizontal axis correspond to the TF element being more likely “present”/active and values below the horizontal axis indicate that the odds that the TF element is “absent”/passive are larger than the odds that it is “present”/active.

Measured: AP-1 activity (log2 odds that TF element is present) after exposure

CCCCCCCCCCCCCC(=O)O[C@@H]1[C@@H](C)[C@@]2(O)[C@@H](C=C(CO)C[C@]3(O)C(=O)C(C)=C[C@@H]23)[C@@H]2C(C)(C)[C@]12OC(C)=O [TPA, 12-O-Tetradecanoylphorbol-13-acetate]
large increase: [1] | [2]; ZXDC1 knockdown induced using doxycycline | [2]; without ZXDC1 knockdown | [3]; U937 transduced with EVI1 expression vector | [3]; U937 transduced with empty vector | [4] | [5] | [6] | [7]; HepG2, 500 nM TPA for 24 hours | [7]; HepG2, 500 nM TPA for 48 hours | [8]; K562 transfected with BASP1-containing vector | [8]; K562 transfected with control empty vector

From patent publication US11776661B2, “Determination of MAPK-AP-1 pathway activity using unique combination of target genes” (InnoSIGN B.V., priority 2017, dated 2023)
